Measured values published in patent EP0082668A1, “5-(2-Halogenovinyl)-2'-deoxyuridine derivatives, processes for their preparation, pharmaceutical compositions containing them and their use in treating viral infections” (BEECHAM GROUP PLC, priority 1981, dated 1983).
Where “and” joins values, the source holds several entries; their conditions need not be identical. Equal entries are not always repeated. Where two headings read alike, the source gives them in different places.

Key:
[1] = test system: herpes simplex type 1 virus (HFEM strain); assay: Plaque reduction test in Vero cells infected with herpes simplex type 1 virus; type: cell-based
Procedure: (§1) Vero (African Green Monkey Kidney) cells were grown to confluence in 6 well multidishes, each well being 3.5 cm in diameter. The cells were incubated with herpes simplex type 1 virus (HFEM strain) and overlaid with 0.5 mL of 0.9% agarose (w/v) in maintenance medium containing the test compound at a range of concentrations from 100 pg/mL in half-log dilution steps. The virus infected cultures were then incubated at 37°C for 6 days before fixing in 4% formaldehyde solution and staining with carbolfuchsin. The dishes were then examined to find the concentration of test compound causing a 50% reduction in the number of virus plaques formed (PDD50 value) and the minimum concentration of test compound which killed the cell monolayer, leaving a clear zone devoid of cells and virus plaques (MTD).

[2] = Minimum concentration killing the cell monolayer (MTD), read in the plaque reduction test; type: cell-based, African Green Monkey; conditions: monkey, vero cells; minimum concentration which killed the cell monolayer; virus infected Vero cultures, 6 days at 37°C
Procedure: as §1

[3] = Human alphaherpesvirus 1, 144 h, concentration causing a 50% reduction in the number of virus plaques, Vero cells, HFEM strain, 6 days at 37°C, molar, read-out: PDD50 (the source's name)
[4] = Human alphaherpesvirus 1, 144 h, concentration causing a 50% reduction in the number of virus plaques, Vero cells, HFEM strain, 6 days at 37°C, read-out: PDD50 (the source's name)
[5] = Human alphaherpesvirus 1, Vero, 144 h, read-out: PDD50

SMILES: O=C(OC[C@H]1O[C@@H](n2cc(/C=C/Br)c(=O)[nH]c2=O)C[C@@H]1OC(=O)c1ccccc1)c1ccccc1 [Example 2, E-5-(2-bromovinyl)-3',5'-di-O-benzoyl-2'-deoxyuridine]
- IC50 [1, 3]: 100000 nM
- IC50 [1, 4]: 54 µg/mL
- MCC at 144 h [2]: > 100 µg/mL

SMILES: O=C(OC[C@H]1O[C@@H](n2cc(/C=C/Br)c(=O)[nH]c2=O)C[C@@H]1O)c1ccccc1 [Example 3, 5'-O-benzoyl-E-5-(2-bromovinyl)-2'-deoxyuridine]
- IC50 [1, 3]: 3700 nM
- IC50 [1, 4]: 1.7 µg/mL
- MCC at 144 h [2]: > 100 µg/mL

SMILES: O=C(O[C@H]1C[C@H](n2cc(/C=C/Br)c(=O)n(C(=O)c3ccccc3)c2=O)O[C@@H]1CO)c1ccccc1 [Example 10, 3-N-Benzoyl-3'-O-benzoyl-E-5-(2-bromovinyl)-2'-deoxyuridine]
- IC50 [1, 3]: 3800 nM
- IC50 [1, 4]: 2.1 µg/mL
- MCC at 144 h [2]: 100 µg/mL

SMILES: O=C(O[C@H]1C[C@H](n2cc(/C=C/Br)c(=O)[nH]c2=O)O[C@@H]1CO)c1ccccc1 [Example 11, 3'-O-Benzoyl-E-5-(2-bromovinyl)-2'-deoxyuridine]
- IC50 [1, 3]: 3700 nM
- IC50 [1, 4]: 1.6 µg/mL
- MCC at 144 h [2]: > 100 µg/mL

SMILES: O=C(c1ccccc1)n1c(=O)c(/C=C/Br)cn([C@H]2C[C@H](O)[C@@H](CO)O2)c1=O [Example 12, 3-N-Benzoyl-E-5-(2-bromovinyl)-2'-deoxyuridine]
- IC50 [1, 3]: 530 nM
- IC50 [1, 4]: 0.23 µg/mL
- MCC at 144 h [2]: 100 µg/mL

SMILES: O=C(OC[C@H]1O[C@@H](n2cc(/C=C/Br)c(=O)[nH]c2=O)C[C@@H]1OC(=O)c1ccc(Cl)cc1)c1ccc(Cl)cc1 [Example 15, E-5-(2-Bromovinyl)-3',5'-di-O-p-chlorobenzoyl-2'-deoxyuridine]
- IC50 [1, 3]: 121000 nM
- IC50 [1, 4]: 74 µg/mL
- MCC at 144 h [2]: > 100 µg/mL

SMILES: O=C(Cc1ccccc1)OC[C@H]1O[C@@H](n2cc(/C=C/Br)c(=O)[nH]c2=O)C[C@@H]1OC(=O)Cc1ccccc1 [Example 17, E-5-(2-Bromovinyl)-3',5'-di-0-phenylacetyl-2'-deoxyuridine]
- IC50 [1, 5]: 3.9 µg/mL and 6.9 µM
- MCC at 144 h [2]: > 100 µg/mL

SMILES: O=C(OC[C@H]1O[C@@H](n2cc(/C=C/Br)c(=O)[nH]c2=O)C[C@@H]1O)c1ccc(Cl)cc1 [Example 18, E-5-(2-Bromovinyl)-5'-0-p-chlorobenzoyl-2'-deoxyuridine]
- IC50 [1, 3]: 1780 nM
- IC50 [1, 4]: 0.84 µg/mL
- MCC at 144 h [2]: > 100 µg/mL

SMILES: COc1ccc(C(=O)OC[C@H]2O[C@@H](n3cc(/C=C/Br)c(=O)[nH]c3=O)C[C@@H]2O)cc1 [Example 19, E-5-(2-Bromovinyl)-5'-p-methoxybenzoyl-2'-deoxyuridine]
- IC50 [1, 3]: 13500 nM
- IC50 [1, 4]: 6.3 µg/mL
- MCC at 144 h [2]: 100 µg/mL

SMILES: O=C(c1ccc(Cl)cc1)n1c(=O)c(/C=C/Br)cn([C@H]2C[C@H](O)[C@@H](CO)O2)c1=O [Example 20, E-5-(2-Bromovinyl)-3-N-p-chlorobenzoyl-2'-deoxyuridine]
- IC50 [1, 3]: 250 nM
- IC50 [1, 4]: 0.12 µg/mL
- MCC at 144 h [2]: > 100 µg/mL

SMILES: COc1ccc(C(=O)n2c(=O)c(/C=C/Br)cn([C@H]3C[C@H](O)[C@@H](CO)O3)c2=O)cc1 [Example 21, E-5-(2-Bromovinyl)-3-N-p-methoxybenzoyl-2'-deoxyuridine]
- IC50 [1, 3]: 540 nM
- IC50 [1, 4]: 0.25 µg/mL
- MCC at 144 h [2]: > 100 µg/mL

SMILES: C[Si](C)(C)OC[C@H]1O[C@@H](n2cc(/C=C/Br)c(=O)[nH]c2=O)C[C@@H]1O[Si](C)(C)C [Example 22, E-5-(2-Bromovinyl)-3',5'-bis-O-trimethylsilyl-2'-deoxyuridine]
- IC50 [1, 5]: 0.24 µg/mL and 500 nM
- MCC at 144 h [2]: > 100 µg/mL

SMILES: CCCCC(=O)n1c(=O)c(/C=C/Br)cn([C@H]2C[C@H](O)[C@@H](CO)O2)c1=O [Example 23, E-5-(2-Bromovinyl)-3-N-valeryl-2'-deoxyuridine]
- IC50 [1, 3]: 620 nM
- IC50 [1, 4]: 0.26 µg/mL
- MCC at 144 h [2]: > 100 µg/mL

SMILES: CC(C)(C)C(=O)n1c(=O)c(/C=C/Br)cn([C@H]2C[C@H](O)[C@@H](CO)O2)c1=O [Example 24, E-5-(2-Bromovinyl)-3-N-pivaloyl-2'-deoxyuridine]
- IC50 [1, 3]: 1100 nM
- IC50 [1, 4]: 0.46 µg/mL
- MCC at 144 h [2]: > 100 µg/mL

SMILES: O=C(C1CCCCC1)n1c(=O)c(/C=C/Br)cn([C@H]2C[C@H](O)[C@@H](CO)O2)c1=O [Example 25, E-5-(2-Bromovinyl)-3-N-cyclohexanecarbonyl-2^1-deoxyuridine]
- IC50 [1, 3]: 720 nM
- IC50 [1, 4]: 0.32 µg/mL
- MCC at 144 h [2]: > 100 µg/mL

SMILES: O=C(c1cccc(Cl)c1)n1c(=O)c(/C=C/Br)cn([C@H]2C[C@H](O)[C@@H](CO)O2)c1=O [Example 26, E-5-(2-Bromovinyl)-3-N-(3-chlorobenzoyl)-2^1-deoxyuridine]
- IC50 [1, 3]: 530 nM
- IC50 [1, 4]: 0.25 µg/mL
- MCC at 144 h [2]: > 100 µg/mL

SMILES: CCCN(CCC)S(=O)(=O)c1ccc(C(=O)OC[C@H]2O[C@@H](n3cc(/C=C/Br)c(=O)[nH]c3=O)C[C@@H]2O)cc1 [Example 29, E-5-(2-Bromovinyl)-5'-p-(dipropylsulphamoyl)benzoyl-2'-deoxyuridine]
- IC50 [1, 3]: 1870 nM
- IC50 [1, 4]: 1.12 µg/mL
- MCC at 144 h [2]: > 100 µg/mL

SMILES: CCCN(CCC)S(=O)(=O)c1ccc(C(=O)n2c(=O)c(/C=C/Br)cn([C@H]3C[C@H](O)[C@@H](CO)O3)c2=O)cc1 [Example 30, E-5-(2-Bromovinyl)-3-[4-(N,N-di-n-propylsulphamoyl)benzoyl]-2'-deoxyuridine]
- IC50 [1, 3]: 180 nM
- IC50 [1, 4]: 0.11 µg/mL
- MCC at 144 h [2]: > 100 µg/mL

SMILES: O=C(OC[C@H]1O[C@@H](n2cc(/C=C/Br)c(=O)[nH]c2=O)C[C@@H]1OC(=O)c1ccc([N+](=O)[O-])cc1)c1ccc([N+](=O)[O-])cc1 [Example 31, E-5-(2-bromovinyl)-3',5'-di-O(4-nitrobenzoyl)-2-deoxy-uridine]
- IC50 [1, 5]: 20 µg/mL and 32 µM
- MCC at 144 h [2]: > 100 µg/mL

SMILES: O=C(OC[C@H]1O[C@@H](n2cc(/C=C/Br)c(=O)[nH]c2=O)C[C@@H]1O)c1ccc([N+](=O)[O-])cc1 [Example 32, E-5-(2-Bromovinyl)-5' -O-(4-nitrobenzoyl)-2'-deoxyuridine]
- IC50 [1, 3]: 2000 nM
- IC50 [1, 4]: 0.95 µg/mL
- MCC at 144 h [2]: > 100 µg/mL

SMILES: O=C(OC[C@H]1O[C@@H](n2cc(/C=C/Br)c(=O)[nH]c2=O)C[C@@H]1OC(=O)c1ccc(Cl)c(Cl)c1)c1ccc(Cl)c(Cl)c1 [Example 33, E-5-(2-bromovinyl)-3',5'-di-O-(3,4-dichlorobenzoyl)-2'-deoxyuridine]
- IC50 [1, 3]: 147000 nM
- IC50 [1, 4]: 100 µg/mL
- MCC at 144 h [2]: > 100 µg/mL

SMILES: O=C(O[C@H]1C[C@H](n2cc(/C=C/Br)c(=O)[nH]c2=O)O[C@@H]1CO)c1ccc(Cl)c(Cl)c1 [Example 34, E-5-(2-bromovinyl)-3'-O-(3,4-dichlorobenzoyl)-2'-deoxyuridine]
- IC50 [1, 3]: 2300 nM
- IC50 [1, 4]: 1.2 µg/mL
- MCC at 144 h [2]: > 100 µg/mL

SMILES: O=C(OC[C@H]1O[C@@H](n2cc(/C=C/Br)c(=O)[nH]c2=O)C[C@@H]1O)c1ccc(Cl)c(Cl)c1 [Example 35, E-5-(2-Bromovinyl)-5' -O-(3 ,4-dichlorobenzoyl)-2'-deoxyuridine]
- IC50 [1, 3]: 2800 nM
- IC50 [1, 4]: 1.4 µg/mL
- MCC at 144 h [2]: > 100 µg/mL

SMILES: Cc1ccc(C(=O)O[C@H]2C[C@H](n3cc(/C=C/Br)c(=O)[nH]c3=O)O[C@@H]2CO)cc1 [Example 37, E-5-(2-bromovinyl)-3'-O-(4-methylbenzoyl)-2'-deoxyuridine]
- IC50 [1, 3]: 1400 nM
- IC50 [1, 4]: 0.63 µg/mL
- MCC at 144 h [2]: > 100 µg/mL

SMILES: Cc1ccc(C(=O)OC[C@H]2O[C@@H](n3cc(/C=C/Br)c(=O)[nH]c3=O)C[C@@H]2O)cc1 [Example 38, E-5-(2-Bromovinyl)-5'-O-(4-methylbenzoyl)-2' -deoxyuridine]
- IC50 [1, 3]: 1700 nM
- IC50 [1, 4]: 0.78 µg/mL
- MCC at 144 h [2]: > 100 µg/mL

SMILES: CCCCc1ccc(C(=O)OC[C@H]2O[C@@H](n3cc(/C=C/Br)c(=O)[nH]c3=O)C[C@@H]2O)cc1 [Example 40, E-5-(2-bromovinyl)-5'-0-(4-n-butylbenzoyl)-2'-deoxyuridine]
- IC50 [1, 3]: 12000 nM
- IC50 [1, 4]: 6.1 µg/mL
- MCC at 144 h [2]: > 100 µg/mL

SMILES: CN(C)c1ccc(C(=O)O[C@H]2C[C@H](n3cc(/C=C/Br)c(=O)[nH]c3=O)O[C@@H]2CO)cc1 [Example 42, E-5-{2-bromovinyl)-3'-O-(4-N,N-dimethylaminobenzoyl)-2'-deoxyuridine]
- IC50 [1, 3]: 1400 nM
- IC50 [1, 4]: 0.63 µg/mL
- MCC at 144 h [2]: > 100 µg/mL

SMILES: CN(C)c1ccc(C(=O)O[C@H]2C[C@H](n3cc(/C=C/Br)c(=O)n(C(=O)c4ccc(N(C)C)cc4)c3=O)O[C@@H]2CO)cc1 [Example 48, E-5-(2-Bromovinyl)-3-N-(p-dimethylaminobenzoyl)-3'-O-(p-dimethylaminobenzoyl)-2'-deoxyuridine]
- IC50 [1, 3]: 940 nM
- IC50 [1, 4]: 0.47 µg/mL
- MCC at 144 h [2]: > 100 µg/mL

SMILES: Cc1ccccc1C(=O)O[C@H]1C[C@H](n2cc(/C=C/Br)c(=O)n(C(=O)c3ccccc3C)c2=O)O[C@@H]1CO [Example 49]
- IC50 [1, 3]: 1100 nM
- IC50 [1, 4]: 0.55 µg/mL
- MCC at 144 h [2]: 100 µg/mL
